Source: ChEMBL document CHEMBL1126464, “Carbamate series of juvenoids” (Bioorg Med Chem Lett, 1992)

How the values were obtained:
Acyrthosiphon pisum = assay: Concentration required for 50% inhibition of acyrthosiphon pisum (ACY) was expressed as percent of active ingredient.; assay type: functional, organism-based
Dysdercus cingulatus = assay: Effective dose that causes 50 % inhibition of Dysdercus cingulatus (DYS) was determined.; assay type: functional
Galleria mellonella = assay: Effective dose that causes 50 % inhibition of Galleria mellonella (GAL) was determined.; assay type: functional

Row | SMILES | IC50 (Acyrthosiphon pisum) [%] | ED50 (Dysdercus cingulatus) [µg/kg] | ED50 (Galleria mellonella) [µg/kg]
1 | CCOC(=O)NCCOc1ccc(CC2CCCCC2=O)cc1 (stereo not given) | 0.05 | 8 | 0.2
2 | CCOC(=O)NCCOc1ccc(C[C@H]2CCCC[C@@H]2O)cc1 | > 0.1 | 40 | 0.8
3 | CCOC(=O)NCCOc1ccc(C[C@@H]2CCCC[C@@H]2O)cc1 | > 0.1 | 1 | 0.8
4 | CCOC(=O)NCCOc1ccc(CC2CCCCC23OCCO3)cc1 (stereo not given) | 0.005 | 80 | 0.8
5 | CCOC(=O)/C=C(C)/C=C/CC(C)CCCC(C)C (stereo not given) [HYDROPRENE] | 0.04 | 1000 | 10
